Where a SMILES comes first, the peptide text is derived from it.
System: porcine pepsase and trypsase
Experiment: Simulated digestive stability of peptides (pepsase then trypsase)
Format: in vitro ADME
Conditions: in words; 5.0 mg/mL peptide, pepsase 5000 U/mL pH 3.0 37 °C 2 h, then trypsase 100 U/mL pH 7.0 37 °C 2 h, LC-MS
Experimental: The in vitro digestibility of the peptides was determined according to the method described by Ohanenye et al. with some modifications. Briefly, 5.0 mg/mL peptides were mixed with 5000 U/mL porcine pepsase (pH 3.0). The mixture was incubated with continuous shaking in a water bath at 37 ℃ for 2 h. Then, the mixture was adjusted to pH 7.0, and a final concentration of 100 U/mL trypsase was added, followed by continuous shaking at 37 ℃ for another 2 h. After digestion, the enzyme was inactivated, and the mixture was incubated in a water bath (100 ℃) for 20 min. Subsequently, the mixture was centrifuged at 6000 rpm for 20 min, after which the supernatants were collected for further analysis. The concentrations of peptides in the digestions and TPH were determined via AB SCIEX QTrap 6600+ (AB Sciex, Framingham, Massachusetts).

## CSCC[C@H](NC(=O)[C@H](C)NC(=O)[C@@H](N)C(C)C)C(=O)N1CCC[C@H]1C(=O)O [VAMP] (H-VAMP-OH)
  Resistance to simulated gastric pepsase and trypsase digestion: readily resistant

From article PMC12527977, “Discovery of a novel tetrapeptide as glucose homeostasis modulator with bifunctionalities of targeting DPP‐IV and microbiota” (iMeta, 2025)
